Results on 7 molecules are retold here after PMC3365113, “Exploiting Ligand-Protein Conjugates to Monitor Ligand-Receptor Interactions” (PLoS ONE, 2012).

Broadly, the Kd is the constant that tells how readily two partners part at equilibrium. By IC50 is commonly meant the concentration at which inhibition is half-maximal.

Test [1] addresses SNAP-eDHFR L54G (Escherichia coli, UniProt P0ABQ4, L54G). The test can be described thus: biochemical. It counts as binding.
Test [2] has as its target SNAP-eDHFR L54I (Escherichia coli, UniProt P0ABQ4, L54I). The test is described as follows: biochemical. The format is binding.
Test [3] concerns the target T1, SNAP-eDHFR WT (Escherichia coli, UniProt P0ABQ4). The test can be described thus: biochemical.
Test [4] has as its target T1, SNAP-eDHFR WT. The test can be described thus: biochemical. The format is binding.
Test [5] addresses T2, PDE6D (Homo sapiens, UniProt O43924).
T2 construct: expressed in transfected cells; host or cells: U2OS
The test is described as follows: Cell imaging assay in fixed U2OS cells. The note with it: 100 nM atorvastatin-SNAP-EGFP. The format is binding. The source says: (§1) Finally, we developed a binding assay applicable to fixed cells. Such an assay is desirable if the protein to be analyzed is insoluble or unstable in extracts. In this assay (Figure 1B, 7A), the epitope-tagged receptor protein is over-expressed in mammalian cells by transient transfection. The cells are fixed with paraformaldehyde and permeabilized with nonionic detergent. The expression of the receptor protein is then confirmed by visualization with the anti-epitope tag antibody conjugated with a fluorophore using immunofluorescence microscopy. In parallel, the ligand-protein interaction is examined with the aid of BG-derivatized ligand conjugated to EGFP via SNAP-tag. […] We evaluated the generality of this method using other previously validated drug-protein interactions (PDE6D-atorvastatin, PTK2B-purvalanol B, and FYN-dasatinib). Binding of all three pairs was detected with this method (Figure S3).
(§2) Supplementary file pone.0037598.s003.tif: Figure S3 Cell imaging assay using validated drug-receptor pairs. (A) U2OS cells were transfected with a plasmid which express V5 tagged PDE6D. One day after transfection, cells were fixed with 4% paraformaldehyde, and permeabilized with 0.1% Tritin X-100. After washing, the cells were incubated with anti-V5-antibody conjugated with FITC or 100 nM atorvastatin-SNAP-EGFP. Fluorescence images (GFP filter) were taken within 30 min after washing of the cells. (B) (C) Cell imaging assay using pairs of purvalanol B-PTK2B and dasatinib-FYN, respectively. (TIF) Click here for additional data file.

The target in test [6] is T3, FYN (Homo sapiens, UniProt P06241).
T3 construct: expressed in transfected cells; host or cells: U2OS
The test is described as follows: Cell imaging assay in fixed U2OS cells. It counts as binding. The note with it: ligand as SNAP-EGFP conjugate.
Text: as §1, §2

The target in test [7] is T4, SNAP-ORP7 (Homo sapiens, UniProt Q9BZF2).
T4 construct: strep-tag (N); made in house; host or cells: HEK293 (suspension HEK-293E), transient transfection, Strep-tactin purified
T4 sequence (Q9BZF2 1-842): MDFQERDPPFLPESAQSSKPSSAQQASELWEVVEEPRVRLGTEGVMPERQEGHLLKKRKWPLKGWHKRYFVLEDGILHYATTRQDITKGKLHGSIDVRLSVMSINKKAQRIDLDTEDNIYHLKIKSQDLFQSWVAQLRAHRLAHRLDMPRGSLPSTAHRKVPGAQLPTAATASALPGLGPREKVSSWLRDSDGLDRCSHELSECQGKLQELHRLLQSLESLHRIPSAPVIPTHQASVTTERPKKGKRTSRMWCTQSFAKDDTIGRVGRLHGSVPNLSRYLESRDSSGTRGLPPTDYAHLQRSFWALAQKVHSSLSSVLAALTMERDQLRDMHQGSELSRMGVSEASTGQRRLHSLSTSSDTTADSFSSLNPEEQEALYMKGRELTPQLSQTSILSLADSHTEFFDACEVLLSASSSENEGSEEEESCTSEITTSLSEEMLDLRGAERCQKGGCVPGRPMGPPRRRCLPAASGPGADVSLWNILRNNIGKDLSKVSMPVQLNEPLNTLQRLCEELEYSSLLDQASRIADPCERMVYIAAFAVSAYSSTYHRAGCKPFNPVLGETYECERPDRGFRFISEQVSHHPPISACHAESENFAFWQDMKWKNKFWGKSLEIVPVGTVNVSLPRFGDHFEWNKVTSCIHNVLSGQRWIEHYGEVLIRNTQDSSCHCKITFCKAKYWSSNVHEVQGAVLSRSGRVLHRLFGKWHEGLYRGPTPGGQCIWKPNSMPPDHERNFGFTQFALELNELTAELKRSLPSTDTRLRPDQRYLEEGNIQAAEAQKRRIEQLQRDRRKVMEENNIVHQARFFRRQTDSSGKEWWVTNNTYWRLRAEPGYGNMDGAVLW
The format is binding. The note with it: HEK293 cell extract, free erlotinib 10 µM.

Test [8] concerns the target T5, PTK2B (Homo sapiens, UniProt Q14289).
T5 construct: expressed in transfected cells; host or cells: U2OS
The test is described as follows: Cell imaging assay in fixed U2OS cells. It counts as binding. The note with it: ligand as SNAP-EGFP conjugate.
Text: as §1, §2

Test [9] deals with eDHFR (every eDHFR mutant). The test can be described thus: SNAP-based TR-FRET competition assay using MTX and MTX-BG as competitors. It counts as binding, Escherichia coli. The note with it: MTX-BG vs MTX, 100 µM NADPH.

As to `COc1cc(NCc2ccc3nc(N)nc(N)c3c2C)cc(OC)c1OC` [Trimetrexate, trimetrexate], the Kd in [1] amounted to 0.64 ± 0.04 nM; in test [2], 0.1 ± 0.01 nM; in test [4] it was 0.15 ± 0.01 nM. In test [3], the IC50 stood at 0.27 ± 0.03 nM.
The matching figures for `CC1(C)N=C(N)N=C(N)N1OCCCOc1cc(Cl)c(Cl)cc1Cl` [WR99210]: 15000 ± 790 nM, 2600 ± 210 nM, 12000 ± 950 nM and 54000 ± 16000 nM.
Take `CC(C)c1c(C(=O)Nc2ccccc2)c(-c2ccccc2)c(-c2ccc(F)cc2)n1CC[C@@H](O)C[C@@H](O)CC(=O)O` [atorvastatin]: the “Binding detected by cell imaging, PDE6D” value in test [5] was “detected”.
For the molecule `Cc1nc(Nc2ncc(C(=O)Nc3c(C)cccc3Cl)s2)cc(N2CCN(CCO)CC2)n1` [dasatinib], in test [6], the “Binding detected by cell imaging, FYN” value is “detected”.
Consider `C#Cc1cccc(Nc2ncnc3cc(OCCOC)c(OCCOC)cc23)c1` [erlotinib], for which the “Effect of free ligand on hetero-crosslinking product band” value in test [7] was “no longer detected”.
`CC(C)[C@H](CO)Nc1nc(Nc2ccc(C(=O)O)c(Cl)c2)c2ncn(C(C)C)c2n1` [purvalanol B]: in test [8], the “Binding detected by cell imaging, PTK2B” value is “detected”.
Consider methotrexate-BG [MTX-BG], for which, in test [9], the “Change of Kd values by derivatization of MTX with BG” value is recorded as “about 10 fold”.
